This is an account of results in BindingDB's records for doi:10.1016/s0960-894x(00)00535-7 (Kyoto University, 2000).

Where a SMILES comes first, the peptide text is derived from it. Bridges are numbered along the chain shown (N, C = ends). [ ]: non-standard residue; d: D form. 2Nal = N[C@@H](Cc1ccc2ccccc2c1)C(=O)O; Cit = NC(=O)NCCC[C@H](N)C(=O)O

The assay can be described thus: Inhibition of HIV-induced cytopathogenicity in MT-4 cell.
On to `C[C@@H]1NC(=O)[C@@H](CCCCN)NC(=O)[C@H](CCCCN)NC(=O)[C@H](CCCN=C(N)N)NC(=O)[C@H](Cc2ccc(O)cc2)NC(=O)[C@@H](NC(=O)[C@H](Cc2ccc3ccccc3c2)NC(=O)[C@H](CCCN=C(N)N)NC(=O)[C@@H](N)CCCN=C(N)N)CSSC[C@@H](C(=O)N[C@@H](CCCN=C(N)N)C(=O)O)NC(=O)[C@H](CCCNC(N)=O)NC(=O)[C@H](CCCN=C(N)N)NC(=O)[C@H](Cc2ccc(O)cc2)NC1=O` (H-RR[2Nal]CYRK[dK]AYR[Cit]CR-OH; disulfide 4-13), for which the EC50 – broadly, the concentration that produces a half-maximal response – is 17 nM.

As for `C[C@@H]1NC(=O)[C@@H](NC(=O)[C@H](Cc2ccc3ccccc3c2)NC(=O)[C@H](CCCN=C(N)N)NC(=O)[C@@H](N)CCCN=C(N)N)CSSC[C@@H](C(=O)N[C@@H](CCCN=C(N)N)C(=O)O)NC(=O)[C@H](CCCNC(N)=O)NC(=O)[C@H](CCCN=C(N)N)NC(=O)[C@H](Cc2ccc(O)cc2)NC(=O)[C@@H]2CCCN2C(=O)[C@@H](CCCCN)NC(=O)[C@H](CCCCN)NC(=O)[C@H](CCCN=C(N)N)NC1=O` [TC-14005], it took 360 nM to reach a half-maximal effect (EC50).

The compound `NCCCC[C@@H]1NC(=O)[C@H](CCCN=C(N)N)NC(=O)[C@H](Cc2ccc(O)cc2)NC(=O)[C@@H](NC(=O)[C@H](Cc2ccc3ccccc3c2)NC(=O)[C@H](CCCNC(N)=O)NC(=O)[C@@H](N)CCCN=C(N)N)CSSC[C@@H](C(=O)N[C@@H](CCCN=C(N)N)C(=O)O)NC(=O)[C@H](CCCNC(N)=O)NC(=O)[C@H](CCCN=C(N)N)NC(=O)[C@H](Cc2ccc(O)cc2)NC(=O)[C@@H]2CCCN2C(=O)[C@@H](CCCCN)NC1=O` showed a half-maximal effective concentration (EC50) of 450 nM.

In turn, `C[C@@H]1NC(=O)[C@H](CCCN=C(N)N)NC(=O)[C@H](Cc2ccc(O)cc2)NC(=O)[C@@H]2CCCN2C(=O)[C@@H](CCCCN)NC(=O)[C@H](CCCCN)NC(=O)[C@H](CCCN=C(N)N)NC(=O)[C@H](Cc2ccc(O)cc2)NC(=O)[C@@H](NC(=O)[C@H](Cc2ccc3ccccc3c2)NC(=O)[C@H](CCCN=C(N)N)NC(=O)[C@@H](N)CCCN=C(N)N)CSSC[C@@H](C(=O)N[C@@H](CCCN=C(N)N)C(=O)O)NC1=O` had a concentration for a half-maximal effect (EC50) of 16 nM.

The compound `NCCCC[C@@H]1NC(=O)[C@H](CCCN=C(N)N)NC(=O)[C@H](Cc2ccc(O)cc2)NC(=O)[C@@H](NC(=O)[C@H](Cc2ccc3ccccc3c2)NC(=O)[C@H](CCCN=C(N)N)NC(=O)[C@@H](N)CCCN=C(N)N)CSSC[C@@H](C(=O)N[C@@H](CCCN=C(N)N)C(=O)O)NC(=O)[C@H](CCCNC(N)=O)NC(=O)[C@H](CCCN=C(N)N)NC(=O)[C@H](Cc2ccc(O)cc2)NC(=O)[C@@H]2CCCN2C(=O)[C@@H](CCCCN)NC1=O` (H-RR[2Nal]CYRK[dK]PYR[Cit]CR-OH; disulfide 4-13) gave an EC50 of 3.3 nM.

`NCCCC[C@H]1NC(=O)[C@H](CCCNC(N)=O)NC(=O)[C@H](CCCN=C(N)N)NC(=O)[C@H](Cc2ccc(O)cc2)NC(=O)[C@@H](NC(=O)[C@H](Cc2ccc3ccccc3c2)NC(=O)[C@H](CCCN=C(N)N)NC(=O)[C@@H](N)CCCN=C(N)N)CSSC[C@@H](C(=O)N[C@@H](CCCN=C(N)N)C(=O)O)NC(=O)[C@H](CCCNC(N)=O)NC(=O)[C@H](CCCN=C(N)N)NC(=O)[C@H](Cc2ccc(O)cc2)NC(=O)[C@@H]2CCCN2C1=O` showed an EC50 of 16 nM.

`C[C@H]1NC(=O)[C@H](CCCCN)NC(=O)[C@H](CCCN=C(N)N)NC(=O)[C@H](Cc2ccc(O)cc2)NC(=O)[C@@H](NC(=O)[C@H](Cc2ccc3ccccc3c2)NC(=O)[C@H](CCCN=C(N)N)NC(=O)[C@@H](N)CCCN=C(N)N)CSSC[C@@H](C(=O)N[C@@H](CCCN=C(N)N)C(=O)O)NC(=O)[C@H](CCCNC(N)=O)NC(=O)[C@H](CCCN=C(N)N)NC(=O)[C@H](Cc2ccc(O)cc2)NC(=O)[C@@H]2CCCN2C1=O` registered a 50% effective concentration (EC50) of 16 nM.
